Experimental data from ChEMBL document CHEMBL1201862, “PubChem BioAssay data set” (2004).
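Values below derive from 48-hour exposures of cells grown in 96-well plates, with endpoints linearly interpolated between the two concentrations bracketing the appropriate inhibition level. The concentration for 50% growth inhibition is given as GI50.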 Activity calls are given as the source filed them. Cut-off read from the data, not from the text of the source: active = GI50 up to about 1.1 µM and inactive = higher.

Columns and labels:
Assay in all cases: NCI-60 cell line screen, 48 h
[1] = test system: SK-OV-3
[2] = test system: HL-60
[3] = test system: SK-MEL-28
[4] = test system: HOP-62
[5] = test system: SF-539
[6] = test system: OVCAR-8
[7] = test system: NCI-H460
[8] = test system: NCI-H23
[9] = test system: K562
[10] = test system: M14
[11] = test system: SW-620
[12] = test system: HCC 2998
[13] = test system: SNB-75
[14] = test system: OVCAR-4
[15] = test system: DU-145
[16] = test system: HT-29
[17] = test system: COLO 205
[18] = test system: PC-3
[19] = test system: RXF 393
[20] = test system: KM12
[21] = test system: EKVX
[22] = test system: MOLT-4
[23] = test system: Malme-3M
[24] = test system: CCRF-CEM
[25] = test system: SK-MEL-5
[26] = test system: NCI-H226
[27] = test system: SF-295
[28] = test system: LOX IMVI
[29] = test system: IGROV-1
[30] = test system: RPMI-8226
[31] = test system: UACC-62
[32] = test system: HOP-92
[33] = test system: UO-31
[34] = test system: ACHN
[35] = test system: 786-0
[36] = test system: HCT-116
[37] = test system: Hs-578T
[38] = test system: UACC-257
[39] = test system: MDA-MB-231
[40] = test system: MDA-N
[41] = test system: OVCAR-5
[42] = test system: SNB-19
[43] = test system: A549
[44] = test system: SF-268
[45] = test system: HCT-15
[46] = test system: NCI-H522
[47] = test system: U-251
[48] = test system: NCI/ADR-RES
[49] = test system: MCF7
[50] = test system: SN12C
[51] = test system: TK-10
[52] = test system: MDA-MB-435
[53] = test system: OVCAR-3
[54] = test system: A498
[55] = test system: T47D
[56] = test system: BT-549
[57] = test system: SR
[58] = test system: CAKI-1
[59] = test system: SK-MEL-2

## Cc1cccc2c1CC1(Cc3ccccc3C1=O)C2=O (stereo unspecified)
[1]
  GI50: 37.6 µM (inactive)
[2]
  GI50: > 100 µM (inactive)
[3]
  GI50: > 100 µM (inactive)
[4]
  GI50: 35.7 µM (inactive)
[5]
  GI50: > 100 µM (inactive)
[6]
  GI50: > 100 µM (inactive)
[7]
  GI50: > 100 µM (inactive)
[8]
  GI50: > 100 µM (inactive)
[9]
  GI50: > 100 µM (inactive)
[10]
  GI50: > 100 µM (inactive)
[11]
  GI50: > 100 µM (inactive)
[12]
  GI50: > 100 µM (inactive)
[13]
  GI50: 77.4 µM (inactive)
[14]
  GI50: > 100 µM (inactive)
[15]
  GI50: > 100 µM (inactive)
[16]
  GI50: > 100 µM (inactive)
[17]
  GI50: > 100 µM (inactive)
[18]
  GI50: > 100 µM (inactive)
[19]
  GI50: > 100 µM (inactive)
[20]
  GI50: > 100 µM (inactive)
[21]
  GI50: > 100 µM (inactive)
[22]
  GI50: > 100 µM (inactive)
[23]
  GI50: > 100 µM (inactive)
[24]
  GI50: > 100 µM (inactive)
[25]
  GI50: > 100 µM (inactive)
[26]
  GI50: > 100 µM (inactive)
[27]
  GI50: > 100 µM (inactive)
[28]
  GI50: > 100 µM (inactive)
[29]
  GI50: > 100 µM (inactive)
[30]
  GI50: > 100 µM (inactive)
[31]
  GI50: 75.7 µM (inactive)
[32]
  GI50: 76.9 µM (inactive)
[33]
  GI50: > 100 µM (inactive)
[34]
  GI50: > 100 µM (inactive)
[35]
  GI50: > 100 µM (inactive)
[36]
  GI50: > 100 µM (inactive)
[37]
  GI50: 26.2 µM (inactive)
[38]
  GI50: > 100 µM (inactive)
[39]
  GI50: > 100 µM (inactive)
[40]
  GI50: > 100 µM (inactive)
[41]
  GI50: > 100 µM (inactive)
[42]
  GI50: > 100 µM (inactive)
[43]
  GI50: > 100 µM (inactive)
[44]
  GI50: 87.1 µM (inactive)
[45]
  GI50: > 100 µM
[46]
  GI50: > 100 µM (inactive)
[47]
  GI50: > 100 µM (inactive)
[48]
  GI50: > 100 µM (inactive)
[49]
  GI50: > 100 µM (inactive)
[50]
  GI50: > 100 µM (inactive)
[51]
  GI50: > 100 µM (inactive)
[52]
  GI50: > 100 µM (inactive)
[53]
  GI50: > 100 µM (inactive)
[54]
  GI50: > 100 µM (inactive)
[55]
  GI50: > 100 µM (inactive)
[56]
  GI50: 24.7 µM (inactive)
[57]
  GI50: > 100 µM (inactive)

## Nc1nccc(NCC2(CO)CC(CCc3ccccc3)C2)n1 (stereo unspecified)
[2]
  GI50: 6.18 µM (inactive)
[3]
  GI50: 16.8 µM (inactive)
[4]
  GI50: 18.2 µM (inactive)
[5]
  GI50: 15.8 µM (inactive)
[6]
  GI50: 18.2 µM (inactive)
[7]
  GI50: 12.3 µM (inactive)
[8]
  GI50: 12.2 µM (inactive)
[9]
  GI50: 4.74 µM (inactive)
[58]
  GI50: 11.8 µM (inactive)
[11]
  GI50: 18.3 µM (inactive)
[12]
  GI50: 19.5 µM (inactive)
[13]
  GI50: 19.9 µM (inactive)
[14]
  GI50: 20.7 µM (inactive)
[15]
  GI50: 12.4 µM (inactive)
[16]
  GI50: 11 µM (inactive)
[17]
  GI50: 13.2 µM (inactive)
[18]
  GI50: 15.1 µM (inactive)
[19]
  GI50: 15.6 µM (inactive)
[20]
  GI50: 17 µM (inactive)
[21]
  GI50: 12.6 µM (inactive)
[22]
  GI50: 7.98 µM (inactive)
[23]
  GI50: 13.7 µM (inactive)
[24]
  GI50: 15.1 µM (inactive)
[59]
  GI50: 14.5 µM (inactive)
[25]
  GI50: 4.06 µM (inactive)
[26]
  GI50: 16 µM (inactive)
[27]
  GI50: 10.8 µM (inactive)
[28]
  GI50: 14.3 µM (inactive)
[29]
  GI50: 13.2 µM (inactive)
[30]
  GI50: 10.8 µM (inactive)
[31]
  GI50: 12.6 µM (inactive)
[32]
  GI50: 4.93 µM (inactive)
[33]
  GI50: 12.5 µM (inactive)
[34]
  GI50: 13.9 µM (inactive)
[35]
  GI50: 14.6 µM (inactive)
[36]
  GI50: 10.8 µM (inactive)
[37]
  GI50: 19.8 µM (inactive)
[38]
  GI50: 14.3 µM (inactive)
[39]
  GI50: 16.6 µM (inactive)
[40]
  GI50: 14.9 µM (inactive)
[41]
  GI50: 14 µM (inactive)
[43]
  GI50: 13 µM (inactive)
[44]
  GI50: > 10 µM (inactive)
[45]
  GI50: 18 µM
[46]
  GI50: 11.8 µM (inactive)
[47]
  GI50: 13.7 µM (inactive)
[48]
  GI50: 14.2 µM (inactive)
[49]
  GI50: 10 µM (inactive)
[50]
  GI50: 19.4 µM (inactive)
[51]
  GI50: 12.5 µM (inactive)
[52]
  GI50: 13.7 µM (inactive)
[53]
  GI50: 12.3 µM (inactive)
[54]
  GI50: 13.2 µM (inactive)
[55]
  GI50: 6.52 µM (inactive)
[56]
  GI50: 21.3 µM (inactive)
[57]
  GI50: 8.71 µM (inactive)

## CN1CC(c2ccccc2)C(O)(C2(c3ccccc3)CN(C)CC(c3ccccc3)C2=O)C(c2ccccc2)C1 (stereo unspecified)
[2]
  GI50: 22.4 µM (inactive)
[3]
  GI50: > 100 µM (inactive)
[4]
  GI50: 77.1 µM (inactive)
[5]
  GI50: > 100 µM (inactive)
[6]
  GI50: > 100 µM (inactive)
[7]
  GI50: 45.8 µM (inactive)
[8]
  GI50: > 100 µM (inactive)
[9]
  GI50: > 100 µM (inactive)
[10]
  GI50: > 100 µM (inactive)
[58]
  GI50: > 100 µM (inactive)
[11]
  GI50: > 100 µM (inactive)
[14]
  GI50: > 100 µM (inactive)
[15]
  GI50: > 100 µM (inactive)
[16]
  GI50: > 100 µM (inactive)
[17]
  GI50: 93.3 µM (inactive)
[18]
  GI50: > 100 µM (inactive)
[20]
  GI50: > 100 µM (inactive)
[21]
  GI50: > 100 µM (inactive)
[22]
  GI50: > 100 µM (inactive)
[59]
  GI50: > 100 µM (inactive)
[25]
  GI50: > 100 µM (inactive)
[26]
  GI50: > 100 µM (inactive)
[27]
  GI50: 55.2 µM (inactive)
[28]
  GI50: > 100 µM (inactive)
[29]
  GI50: > 100 µM (inactive)
[30]
  GI50: > 100 µM (inactive)
[31]
  GI50: > 100 µM (inactive)
[32]
  GI50: 50.1 µM (inactive)
[33]
  GI50: > 100 µM (inactive)
[34]
  GI50: > 100 µM (inactive)
[35]
  GI50: > 100 µM (inactive)
[36]
  GI50: 75.3 µM (inactive)
[37]
  GI50: 23.1 µM (inactive)
[38]
  GI50: > 100 µM (inactive)
[39]
  GI50: > 100 µM (inactive)
[40]
  GI50: > 100 µM (inactive)
[41]
  GI50: > 100 µM (inactive)
[42]
  GI50: > 100 µM (inactive)
[43]
  GI50: > 100 µM (inactive)
[44]
  GI50: > 100 µM (inactive)
[45]
  GI50: > 100 µM
[46]
  GI50: > 100 µM (inactive)
[47]
  GI50: > 100 µM (inactive)
[48]
  GI50: > 100 µM (inactive)
[49]
  GI50: > 100 µM (inactive)
[50]
  GI50: > 100 µM (inactive)
[51]
  GI50: > 100 µM (inactive)
[52]
  GI50: > 100 µM (inactive)
[53]
  GI50: > 100 µM (inactive)
[54]
  GI50: 91.2 µM (inactive)
[55]
  GI50: > 100 µM (inactive)
[56]
  GI50: > 100 µM (inactive)
[57]
  GI50: > 100 µM (inactive)
